Results: patent publication US8119599B2, “Direct application of non-toxic crosslinking reagents to resist progressive spinal degeneration and deformity” (Orthopeutics, L.P., priority 2001, dated 2012)
Values joined by “and” are separate entries in the source; they are usually repeats but may differ in a detail not shown here. Equal entries are not always repeated.

How the values were obtained:
[1] = tested on: calf spine segments (intervertebral disc annular tissue); experiment: Four-point lateral bending test of spine segments after unilateral injection of crosslinking reagent; conditions: for Change in Stiffness: Compression side / Change in Stiffness: Tensionon side: neutral zone bending stiffness versus pre-treatment control; for Change in Stiffness: Compression side: treated side in compression; for Change in Stiffness: Tensionon side / Loss of Hysteresis: treated side in tension; for Loss of Hysteresis: versus pre-treatment control of same specimen
From the text: Experiments utilized 5 calf spine segments, each segment comprised of 3 lumbar intervertebral joints (motion segments), four vertebrae and the intervening 3 discs. The pedicles were cut and the posterior processes removed. The segments were randomly divided into a 0.33% by weight genipin crosslinked group, a 0.5% genipin group, a 0.66% genipin group, and a 0.66% genipin plus 0.1% proanthocyanidin group. Each group consisted of one 3 motion segment specimen. Each pre-treated spine served as its own control. Repeated testing was performed on some untreated and treated specimens to determine repeatability of the measurements. Additional appropriate concentrations and combinations of known minimally cytotoxic crosslinking reagents will be chosen based on the documented cytotoxicity of a particular tissue. […] Similar testing will be conducted on fresh-non-frozen animal tissue with appropriate sterilization procedures and antibiotics to prevent tissue degradation. Sugar solutions will be injected unilaterally into fresh intervertebral discs to induce non-enzymatic glycation crosslinks over a period of sterile incubation.
Four-point lateral bending tests were conducted using an MTS 858 materials testing system with custom fixtures while load and displacement were recorded digitally. First the specimens were cleaned of muscle and other non-load supporting tissues, and then the terminal vertebrae were potted in polyurethane to half their height in square molds. The potted spine segments are then placed on the bottom 2 rollers such that the lateral sides of the spines were positioned in a vertical plane. The bending load was actuated by 2 upper rollers in contact with the central two vertebrae of the segment. Care was taken to ensure that the pre- and post-treatment positioning of the specimens on the rollers was similar. As an attribute of 4-point bending, the central region of the test specimen, including the central disc between the 2 upper rollers, has an […] bending moment. A ramp load to 100 N (0.5 mm/s) was applied in right and left lateral bending to each spine both prior to treatment and after crosslinking treatment.
The crosslinking reagents were delivered to each of the discs in each spine specimen by 2 to 3 injections into one lateral side of the spine. Each injection was comprised of 1 cc of reagent. A 26 gauge hypodermic needle was used. The treated segments were allowed to sit in a closed container wrapped in moist paper towels for 36 hours prior to final testing. After testing, the discs were cut transversely to visually document the region of the tissue contacted by the reagents.
Resistance to lateral bending and lateral bending stability were assessed by two measures, one elastic-plastic, the other viscoelastic. The first was the neutral zone (low-load) bending stiffness evidenced by the amount of deformation from 0.1 to 100 N of deforming force. The second was the hysteresis or bending energy lost or not stored by the tissues. Less hysteresis, or a lower percentage of hysteresis compared to strain energy or the amount of bending energy stored and returned, corresponds to greater capacity to bounce back from a bend rather than remain in the deformed position. It also reflects a more elastic, spring-like response as compared to a more viscous response.

[2] = tested on: posterior intervertebral disc (lumbar intervertebral joints); experiment: Indentation stress relaxation of posterior annulus before and after compression/flexion fatigue cycling; design: species or system calf; conditions: for change in relaxation due to 6000 fatigue cycles versus controls (fatigue resistance): 72 hours soaking (G1 0.033%, G2 0.33% Genipin in PBS), 6000 cycles at 200 N, 0.25 Hz; for initial pre-fatigue relaxation less than the pre-fatigue relaxation of the controls: 72 hours soaking in PBS with Genipin (G1 0.033%, G2 0.33%), before fatigue cycling
Description: (§1) Thirty-three lumbar intervertebral joints were obtained from ten four-month-old calf spines. The intervertebral joints were arbitrarily divided into 3 groups: untreated controls-12 specimens, Genipin treatment 1 (G1)-6 specimens, and Genipin treatment 2 (G2)-13 specimens. The G1 treatment involved 72 hours of soaking the whole specimen in PBS with a 0.033% concentration of Genipin. Similarly the G2 treatment involved 72 hours of soaking whole specimens in PBS with 0.33% concentration of Genipin. 0.33% Genipin in PBS is produced by dilution of 50 ml of 10 times. PBS (Phosphate Buffered Saline) with distilled water by a factor of 10 to give 500 ml (500 gm) of PBS and mixing in 1.65 grams of genipin to produce the 0.33% (wt %, gm/gm) solution. […] Some controls were not subjected to soaking prior to fatigue testing. Others were soaked in a saline solution for 72 hours. Water mass loss experiments were conducted to establish the equivalency of outer annulus hydration between the genipin soaked and 0.9% saline soaked controls. The selection of treatments was randomized by spine and level. The vertebral ends of the specimens were then potted in polyurethane to facilitate mechanical testing. At the prescribed points in the loading regimen, indentation testing was used to find viscoelastic properties as follows. Stress relaxation data was gathered by ramp loading the 3 mm diameter hemi-spherical indenter to 10 N and subsequently holding that displacement for 60 s, while recording the resulting decrease in stress, referred to as the stress relaxation. Indentation testing was also utilized to determine elastic-plastic properties by calculating a hardness index (resistance to indentation) from ramp loading data. Prior to recording hardness measurements, the tissue is repeatedly indented 10 times (60 s/cycle, to the displacement at an initial 10 N load). This test protocol is based on two principles. First, viscoelastic effects asymptotically decrease with repeated loading. Secondly, hardness measurements are sensitive to the loading history of the tissue. However this effect becomes negligible following 10 loading cycles. In order to minimize these effects, viscoelastic data (stress relaxation) was collected from tissue that had not previously been indented. Alternately, elastic-plastic data (hardness) was collected from tissue that had been repeatedly loaded (preconditioned). In this case, repetitive indentation was intended to reduce the undesired effects of the changing viscoelastic properties, namely lack of repeatability, on hardness measurements. These testing procedures were derived from several preliminary experiments on the repeatability of the measurements with variations of loading history and location. Following initial indentation testing, the specimen was loaded repetitively in flexion-compression at 200 N for 3000 cycles at a rate of 0.25 Hz. The load was applied perpendicularly to the transverse plane, 40 mm anterior to the mid-point of the specimen in the transverse plane. A second set of indentation testing data is then collected following fatigue cycling. This procedure was followed for two fatigue loading cycles. During all testing, the specimens were wrapped in saline wetted gauze to maintain their moisture content. […] Several statistical measures were calculated to evaluate the significance of the results. […]

[3] = compared to other more commonly used crosslinking agents; cited from earlier work
[4] = tested on: annulus fibrosus specimens from lumbar intervertebral discs; experiment: Radial tear resistance test of annulus fibrosus specimens; design: species or system bovine; conditions: soaked two days in 0.15M PBS plus 0.33% genipin
From the text: Ten annulus fibrosus circumferentially aligned specimens from bovine lumbar (T12-L5) intervertebral discs were divided into two groups and either soaked two days in a 0.15M PBS or a 0.15M PBS plus 0.33% genipin solution. A custom loading fixture attached to a uniaxial materials testing system was designed to hold an annulus specimen perpendicular to the travel of a metal cylinder placed in a pre-existing radial cut. The cylinder was then pulled radially (perpendicular to lamellae) towards the external layer. Time dependent force and displacement data was acquired simultaneously. Tearing resistance was quantified in two ways: peak force normalized by specimen thickness and tearing energy per area of tear. Differences between groups were analyzed using the Mann-Whitney non-parametric test.

[5] = tested on: posterior intervertebral disc (lumbar intervertebral joints); experiment: Indentation hardness of posterior annulus before and after compression/flexion fatigue cycling; design: species or system calf; conditions: for persistence of hardness improvement under fatigue cycling: 0.33% Genipin soak, up to 3000 fatigue cycles
Description: as §1, with “measurements.” for “measurements. These testing procedures were derived from several preliminary experiments on the repeatability of the measurements with variations of loading history and location. Following initial indentation testing, the specimen was loaded repetitively in flexion-compression at 200 N for 3000 cycles at a rate of 0.25 Hz. The load was applied perpendicularly to the transverse plane, 40 mm anterior to the mid-point of the specimen in the transverse plane. A second set of indentation testing data is then collected following fatigue cycling. This procedure was followed for two fatigue loading cycles. During all testing, the specimens were wrapped in saline wetted gauze to maintain their moisture content.”

[6] = tested on: collagenous, load-supporting tissues; conditions: compared with other crosslinking reagents (Sung 1999b); cited from earlier work
[7] = tested on: intervertebral discs (nucleus pulposus, inner and outer annulus fibrosus); experiment: Hydration change / fluid flux of disc regions after soaking, creep loading and resoaking; design: species or system calf (4 month old bovine); conditions: for Water content, Gr C2: 0.33% Genipin 2 days, then 750N creep loading 1 hour; for % increase by Genipin (flux versus control) / Genipin Flux / % increase by Genipin (fluid flow into and out of the nucleus versus control): 0.33% genipin; for Water content, Gr B2: 1 day PBS then 2 days 0.33% genipin solution; for Water content, Gr D2: 0.33% genipin 2 days, 750N creep 1 hour, PBS another day
From the text: By measuring the change in hydration of different regions of the intervertebral disc (nucleus pulposus, inner annulus, and outer annulus fibrosus) prior to and after periods of soaking, sustained compressive loading, and resoaking, the fluid flux to and from different regions can be determined. By comparing these measurements between control discs and discs treated with crosslinking reagents known to have minimal cytotoxicity, we see the effect of crosslinking treatment on fluid flux and permeability. A total of 24 calf (4 month old bovine) intervertebral discs were used for this study. Water content of three different areas of the […] tissue were tested-the nucleus pulposus, inner annulus fibrosus and outer annulus fibrosus. Hydration change was determined by weighing the specimen using a micro-balance (sensitivity: 0.1 mg). Water content (M) was calculated as: M=(Wet Weight-Dry Weight)/Wet Weight=g H2O/g Wet Weight The drying procedure consisted of putting the specimens in the oven with a controlled temperature of 90 degree C. for 24 hours. The specimens were separated into four tests: 1. Group A: Three specimens were in this group. It served as a control group. The specimens were soaked in PBS (phosphate buffered saline) for 1 day and then the hydration analysis was performed. 2. Group B1: Four specimens were in this group. In addition to the one day PBS soaking, the specimens soaked in PBS for 2 more days as a control and then the hydration analysis was performed. Group B2: Five specimens were in this group. In addition to the one day PBS soaking, the specimens were soaked in 0.33% genipin solution for 2 days and then the hydration analysis was performed. 3. In group C, a small daytime amount of constant compressive loading (creep) was simulated. C1: Three specimens were in this group. The specimens were soaked in PBS for 3 days and then […] of compression was applied by a materials testing machine for 1 hour. The disc was compressed in a 5 degree of flexion posture produced by two rollers attached to the loading ram of the materials testing machine. The hydration analysis was performed immediately after the creep loading. C2: Three specimens were in this group. The specimens were soaked in 0.33% Genipin solution for 2 days after 1 day of PBS soaking and performed identical creep loading with […] compressive load. The hydration analysis was performed immediately after the creep loading. 4. In group D, the imbibition of water following a period of compressive loading that typically occurs in the night time as a person is in a recumbent posture was simulated. D1: The specimens were soaked in PBS solution for 3 days and then 1 hour of creep loading at 750 N was applied. After the creep loading, the specimens were placed in a container in 1 PBS for one more day followed by the hydration analysis. D2: Three specimens were included and were soaked in 0.33% genipin solution for 2 days after one day of PBS soaking. A creep load of […] for one hour was then applied. The specimens were put in PBS for another day followed by the hydration analysis.

COC(=O)C1=CO[C@@H](O)[C@@H]2C(CO)=CC[C@H]12 [0.33G, genipin]
Change in Stiffness: Compression side [1]: 29% | Change in Stiffness: Tensionon side [1]: 17% | Loss of Hysteresis [1]: 35%

COC(=O)C1=CO[C@@H](O)[C@@H]2C(CO)=CC[C@H]12 [0.66G, genipin]
Change in Stiffness: Compression side [1]: 8% | Change in Stiffness: Tensionon side [1]: 6% | Loss of Hysteresis [1]: 20%

COC(=O)C1=CO[C@@H](O)[C@@H]2C(CO)=CC[C@H]12 [genipin]
reduction in viscoelastic degradation ([2]; soaking calf disc tissue in 0.33% concentration of genipin): More than a three-fold reduction | cytotoxicity [3]: significantly less cytotoxicity | Normalized peak force (peak force normalized by specimen thickness) [4]: 42.7 N/mm | Total energy per area of tear [4]: 40.2 mJ/mm^2 | persistence of hardness improvement under fatigue cycling [5]: unable to sustain an improvement in the elastic mechanical properties (hardness) to 3000 test cycles | ultimate tensile strength and toughness [6]: greater ultimate tensile strength and toughness | Water content, Gr C2 ([7]; Inner AF): 0.7394 g H2O/g Wet Weight | % increase by Genipin (flux versus control) ([7]; Inner AF): 17.3% | Genipin Flux ([7]; Inner AF): 0.1008 | Water content, Gr B2 ([7]; Inner AF): 0.7629 g H2O/g Wet Weight | Water content, Gr C2 ([7]; NP): 0.817 g H2O/g Wet Weight | % increase by Genipin (fluid flow into and out of the nucleus versus control) ([7]; NP): 64% | Genipin Flux ([7]; NP): 0.04983 | Water content, Gr D2 ([7]; NP): 0.8524 g H2O/g Wet Weight | % increase by Genipin (fluid flow into and out of the nucleus versus control) ([7]; NP, listed as Genipin): 63.7% | Water content, Gr B2 ([7]; NP): 0.8314 g H2O/g Wet Weight | Water content, Gr C2 ([7]; Outer AF): 0.6924 g H2O/g Wet Weight | % increase by Genipin (flux versus control) ([7]; Outer AF): 5.7% | Genipin Flux ([7]; Outer AF): 0.05294 | Water content, Gr D2 ([7]; Outer AF): 0.711 g H2O/g Wet Weight | Water content, Gr B2 ([7]; Outer AF): 0.7268 g H2O/g Wet Weight

COC(=O)C1=CO[C@@H](O)[C@@H]2C(CO)=CC[C@H]12 [0.50G, genipin]
Change in Stiffness: Compression side [1]: −12% and −22% | Change in Stiffness: Tensionon side [1]: 8% and 0.43%

COC(=O)C1=CO[C@@H](O)[C@@H]2C(CO)=CC[C@H]12 [G2, Genipin]
change in relaxation due to 6000 fatigue cycles versus controls (fatigue resistance) [2]: less than a third of the change in the controls | initial pre-fatigue relaxation less than the pre-fatigue relaxation of the controls [2]: 19% | persistence of hardness improvement under fatigue cycling [5]: appears to have eroded prior to 3000 fatigue cycles | change in hardness between 3000 and 6000 cycles ([5]; G2: 0.33% Genipin, Brinnell's hardness index): −0.94 | initial pre-fatigue hardness greater than that of the control group ([5]; G2: 72 hours soaking in PBS with 0.33% Genipin, before fatigue cycling): 17%

COC(=O)C1=CO[C@@H](O)[C@@H]2C(CO)=CC[C@H]12 [G1, Genipin]
change in relaxation due to 6000 fatigue cycles versus controls (fatigue resistance) [2]: did not bring about the same improvement in fatigue resistance | initial pre-fatigue relaxation less than the pre-fatigue relaxation of the controls [2]: 26%
